Source: patent US20060002946A1, “Targeted immunogens” (Aventis Pasteur, Inc., priority 2003, published 2006)

Legend:
[1] = tested on: HLA-A2/Kb transgenic mice; test: s.c. peptide immunization, gp100-154 CTL chromium release (FIG. 5); details: 50 ug s.c., boosts days 21 and 42, day 63
Description: CTL responses in HLA-A2/Kb transgenic mice following subcutaneous (s.c.) injection of peptide. Mice were immunized s.c. with 50 ug of the indicated peptides and boosted on days 21 and 42 following the first injection. Splenocytes from immunized animals were harvested on day 63 post immunization, re-stimulated with the native gp100-154 peptide for 5 days, and tested for CTL activity in a standard chromium release assay using target cells pulsed with gp100-154 peptide.
Furthermore, CTL responses were assessed in HLA-A2/K^b transgenic mice (Sherman strain) following s.c. immunization with gp100-154 peptide alone, conjugated to hPER1 or AntpHD with or without linker FVYVW. Mice were boosted on days 21 and 42 and splenocytes from vaccinated animals were harvested on day 63 and tested for CTL activity after 5 days of restimulation in vitro.

[2] = tested on: HLA-A2/K^b transgenic mice; details: 100 μg s.c. plus T-helper peptide, no adjuvant, boosts days 14 and 28
Description: Mice were similarly boosted on days 14 and 28. On day 42, splenocytes (2 mice per group) were individually restimulated in vitro for 6 days with the appropriate wild type peptide, and then tested for either IFN-γ secretion by ELISPOT (FIG. 3A) or CTL assay (FIG. 3B) using peptide-pulsed C1R-A2 cells. On day 57, the remaining mice in each group were similarly tested. Average responses from each group are shown.

[3] = tested on: HLA-A2/K^b transgenic mice; test: s.c. immunization without adjuvant, CTL assay (FIG. 3B); type: in vivo, mouse; details: 100 μg s.c. plus T-helper peptide, no adjuvant, boosts days 14 and 28
Description: Mice were similarly boosted on days 14 and 28. […] Average responses from each group are shown.

“GRRHHRRSKAKRSRKTWGQYWQV [hPER1, no linker, gp100-154]” was tested, and the “CTL responses against gp100-154” value [1] was “a weak response was observed”, the “154-specific IFN-γ responses (ELISPOT)” value [2] was “can be induced” and the “peptide-specific CTL responses” value [3] was “can be induced”.
